The test addresses T1, RXFP1 (Homo sapiens, UniProt Q9HBX9).
T1 construct: OVCAR5 cells expressing endogenous RXFP1; endogenous in cells; host or cells: OVCAR5 cells
T1 sequence (Q9HBX9 1-757): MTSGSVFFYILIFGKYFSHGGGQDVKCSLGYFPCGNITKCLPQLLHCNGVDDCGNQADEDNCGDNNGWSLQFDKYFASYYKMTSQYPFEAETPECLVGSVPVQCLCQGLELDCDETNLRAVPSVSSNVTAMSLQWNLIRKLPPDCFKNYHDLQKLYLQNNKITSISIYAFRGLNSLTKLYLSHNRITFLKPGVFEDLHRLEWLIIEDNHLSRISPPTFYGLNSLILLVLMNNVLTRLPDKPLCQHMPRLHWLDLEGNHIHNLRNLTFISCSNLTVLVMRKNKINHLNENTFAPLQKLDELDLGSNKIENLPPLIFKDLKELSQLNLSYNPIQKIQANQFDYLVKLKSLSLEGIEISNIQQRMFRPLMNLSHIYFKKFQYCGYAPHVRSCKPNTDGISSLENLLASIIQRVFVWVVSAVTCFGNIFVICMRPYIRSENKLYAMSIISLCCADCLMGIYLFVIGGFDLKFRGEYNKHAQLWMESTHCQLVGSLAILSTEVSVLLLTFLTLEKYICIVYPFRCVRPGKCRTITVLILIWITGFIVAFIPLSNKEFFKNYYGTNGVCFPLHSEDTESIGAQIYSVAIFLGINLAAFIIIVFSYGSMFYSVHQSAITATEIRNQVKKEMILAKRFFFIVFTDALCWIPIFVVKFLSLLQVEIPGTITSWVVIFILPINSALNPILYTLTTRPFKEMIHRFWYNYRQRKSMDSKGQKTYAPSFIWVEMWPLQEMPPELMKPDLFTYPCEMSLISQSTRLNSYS
Description: OVCAR5 cAMP assay (HTRF), RXFP1 agonist activity. It counts as cell-based. The conditions noted are these: for Emax: OVCAR-5, maximal cAMP relative to H2-relaxin maximum (100%), read-out: EMax, OVCAR 5 cells (cAMP); for EC50: OVCAR5 cells, cAMP HTRF, read-out: EC50 (nM), OVCAR 5 cells (cAMP). The method, boiled down:
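OVCAR5 cells (endogenous RXFP1) pretreated 40 min at 37° C with 1 mM IBMX, then exposed to peptides in serum-free medium for 30 min at 37° C. Lysate cAMP read by HTRF; EC50 from variable-slope sigmoidal fit; Emax as % of H2-relaxin maximal cAMP in same run.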
(cAMP levels reflect the balance of adenylyl cyclase and phosphodiesterase activity.)

Molecules are shown by their SMILES. *1 amine or outer side, *2 acyl side, *3 side chain or, on linkers, in order; H or OH if unused. Where a SMILES comes first, the peptide text is derived from it. Side-chain parts run from the residue outwards. [ ]: non-standard residue; d: D form. The star is where a group is joined. PEG12 = NCCOCCOCCOCCOCCOCCOCCOCCOCCOCCOCCOCCOCCC(=O)O; αMeW = C[C@](N)(Cc1c[nH]c2ccccc12)C(=O)O; γGlu = O=C(O)[C@H](CCC(=O)[*:2])N[*:1]; 1Nal = N[C@@H](Cc1cccc2ccccc12)C(=O)O; Stearoyl = CCCCCCCCCCCCCCCCCC(=O)*; Palmitoyl = CCCCCCCCCCCCCCCC(=O)*; αMeK = C[C@](N)(CCCCN)C(=O)O; Nle = CCCC[C@H](N)C(=O)O; AEEA = NCCOCCOCC(=O)O; Aib = CC(C)(N)C(=O)O

What is called Emax is the maximal effect, on the per cent scale that the assay sets. For the compound `CCCCCCCCCCCCCCCCCC(=O)N[C@@H](CCC(=O)N[C@@H](CCC(=O)N[C@@H](CCC(=O)NCCOCCOCC(=O)NCCOCCOCC(=O)NCCOCCOCC(=O)NCCCC[C@H](NC(=O)[C@H](CCCCNC(C)=O)NC(=O)[C@H](CCCCN)NC(=O)[C@H](CCCNC(=N)N)NC(=O)C(C)(C)NC(=O)[C@H](CO)NC(=O)[C@H](Cc1c[nH]c2ccccc12)NC(=O)[C@@H](NC(=O)[C@H](CO)NC(=O)[C@H](CCC(N)=O)NC(=O)CNC(=O)[C@H](CCC(=O)O)NC(=O)C(C)(C)NC(=O)C(C)(C)NC(=O)[C@@H](NC(=O)[C@H](CCCCNC(C)=O)NC(=O)[C@H](C)NC(=O)[C@H](CCCNC(=N)N)NC(=O)[C@@H](NC(=O)[C@H](CCCCN)NC(=O)[C@H](CCC(=O)O)NC(=O)[C@H](CCCNC(=N)N)NC(=O)CNC(=O)[C@H](CCC(=O)O)NC(=O)[C@H](CC(C)C)NC(C)=O)C(C)C)[C@@H](C)CC)[C@@H](C)O)C(N)=O)C(=O)O)C(=O)O)C(=O)O` [compound 113] (Ac-LEGREKVRAK(Ac)I[Aib][Aib]EGQSTWS[Aib]RKK(Ac)K([AEEA-AEEA-AEEA-γGlu-γGlu-γGlu-Stearoyl])-NH2), the Emax was 89%. For orientation: EC50 means the midpoint of the concentration-response curve. For the compound `CCCCCCCCCCCCCCCC(=O)N[C@@H](CCC(=O)N[C@@H](CCC(=O)N[C@@H](CCC(=O)N[C@@H](CCC(=O)NCCCC[C@H](NC(=O)COCCOCCNC(=O)COCCOCCNC(=O)COCCOCCNC(=O)COCCOCCNC(=O)[C@H](CCCCNC(C)=O)NC(=O)[C@H](CCCCN)NC(=O)[C@H](CCCNC(=N)N)NC(=O)[C@](C)(CCCCN)NC(=O)[C@H](CO)NC(=O)[C@H](Cc1ccccc1)NC(=O)[C@@H](NC(=O)[C@H](CO)NC(=O)[C@H](CCCC)NC(=O)CNC(=O)[C@H](CCC(=O)O)NC(=O)C(C)(C)NC(=O)C(C)(C)NC(=O)[C@@H](NC(=O)[C@H](CCCCNC(C)=O)NC(=O)[C@H](C)NC(=O)[C@H](CCCNC(=N)N)NC(=O)[C@@H](NC(=O)[C@H](CCCCN)NC(=O)[C@H](CCC(=O)O)NC(=O)[C@H](CCCNC(=N)N)NC(=O)CNC(=O)[C@H](CCC(=O)O)NC(=O)[C@H](CC(C)C)NC(C)=O)C(C)C)[C@@H](C)CC)[C@@H](C)O)C(N)=O)C(=O)O)C(=O)O)C(=O)O)C(=O)O` [compound 143] (Ac-LEGREKVRAK(Ac)I[Aib][Aib]EG[Nle]STFS[αMeK]RKK(Ac)[AEEA][AEEA][AEEA][AEEA]K([γGlu-γGlu-γGlu-γGlu-Palmitoyl])-NH2), the 50% effective concentration (EC50) is 0.4 nM and the Emax was found to be 88%. As for `CCCCCCCCCCCCCCCC(=O)N[C@@H](CCC(=O)N[C@@H](CCC(=O)N[C@@H](CCC(=O)NCCCC[C@H](NC(=O)CCOCCOCCOCCOCCOCCOCCOCCOCCOCCOCCOCCOCCNC(=O)[C@H](CCCCN)NC(=O)[C@H](CCCNC(=N)N)NC(=O)C(C)(C)NC(=O)[C@H](CO)NC(=O)[C@H](Cc1cccc2ccccc12)NC(=O)[C@@H](NC(=O)[C@H](CO)NC(=O)[C@H](CCCC)NC(=O)CNC(=O)[C@H](CCC(=O)O)NC(=O)C(C)(C)NC(=O)C(C)(C)NC(=O)[C@@H](NC(=O)[C@H](CCCCNC(C)=O)NC(=O)[C@H](C)NC(=O)[C@H](CCCNC(=N)N)NC(=O)[C@@H](NC(=O)[C@H](CCCCN)NC(=O)[C@H](CCC(=O)O)NC(=O)[C@H](CCCNC(=N)N)NC(=O)CNC(=O)[C@H](CCC(=O)O)NC(=O)[C@H](CC(C)C)NC(C)=O)C(C)C)[C@@H](C)CC)[C@@H](C)O)C(N)=O)C(=O)O)C(=O)O)C(=O)O` [compound 29] (Ac-LEGREKVRAK(Ac)I[Aib][Aib]EG[Nle]ST[1Nal]S[Aib]RK[PEG12]K([γGlu-γGlu-γGlu-Palmitoyl])-NH2), the Emax turned out to be 78%. For the compound `CCCCCCCCCCCCCCCC(=O)N[C@@H](CCC(=O)N[C@@H](CCC(=O)NCCCC[C@H](NC(=O)[C@H](CCCNC(=N)N)NC(=O)C(C)(C)NC(=O)[C@H](CO)NC(=O)[C@H](Cc1c[nH]c2ccccc12)NC(=O)[C@@H](NC(=O)[C@H](CO)NC(=O)[C@H](CCSC)NC(=O)CNC(=O)[C@H](CCC(=O)O)NC(=O)C(C)(C)NC(=O)C(C)(C)NC(=O)[C@@H](NC(=O)[C@H](CCC(N)=O)NC(=O)[C@H](C)NC(=O)[C@H](CCCNC(=N)N)NC(=O)[C@@H](NC(=O)[C@H](CCCCN)NC(=O)[C@H](CCC(=O)O)NC(=O)[C@H](CCCNC(=N)N)NC(=O)CNC(=O)[C@H](CCC(=O)O)NC(=O)[C@H](CC(C)C)NC(C)=O)C(C)C)[C@@H](C)CC)[C@@H](C)O)C(N)=O)C(=O)O)C(=O)O` [compound 5] (Ac-LEGREKVRAQI[Aib][Aib]EGMSTWS[Aib]RK([γGlu-γGlu-Palmitoyl])-NH2), the Emax worked out at 105%. As to `CCCCCCCCCCCCCCCCCC(=O)N[C@@H](CCC(=O)N[C@@H](CCC(=O)N[C@@H](CCC(=O)NCCOCCOCC(=O)NCCOCCOCC(=O)NCCCC[C@H](NC(=O)[C@H](CCCCN)NC(=O)[C@H](CCCCN)NC(=O)[C@H](CCCNC(=N)N)NC(=O)C(C)(C)NC(=O)[C@H](CO)NC(=O)[C@H](Cc1c[nH]c2ccccc12)NC(=O)[C@@H](NC(=O)[C@H](CO)NC(=O)[C@H](CCC(=O)O)NC(=O)CNC(=O)[C@H](CCC(=O)O)NC(=O)C(C)(C)NC(=O)C(C)(C)NC(=O)[C@@H](NC(=O)[C@H](CCC(N)=O)NC(=O)[C@H](C)NC(=O)[C@H](CCCNC(=N)N)NC(=O)[C@@H](NC(=O)[C@H](CCCCN)NC(=O)[C@H](CCC(=O)O)NC(=O)[C@H](CCCNC(=N)N)NC(=O)CNC(=O)[C@H](CCC(=O)O)NC(=O)[C@H](CC(C)C)NC(C)=O)C(C)C)[C@@H](C)CC)[C@@H](C)O)C(N)=O)C(=O)O)C(=O)O)C(=O)O` [compound 68] (Ac-LEGREKVRAQI[Aib][Aib]EGESTWS[Aib]RKKK([AEEA-AEEA-γGlu-γGlu-γGlu-Stearoyl])-NH2), the Emax is 94%. For `CCCCCCCCCCCCCCCCCC(=O)N[C@@H](CCC(=O)N[C@@H](CCC(=O)N[C@@H](CCC(=O)NCCCC[C@H](NC(=O)CCOCCOCCOCCOCCOCCOCCOCCOCCOCCOCCOCCOCCNC(=O)[C@H](CCCCN)NC(=O)[C@H](CCCNC(=N)N)NC(=O)C(C)(C)NC(=O)[C@H](CO)NC(=O)[C@H](Cc1c[nH]c2ccccc12)NC(=O)[C@@H](NC(=O)[C@H](CO)NC(=O)[C@H](CCSC)NC(=O)CNC(=O)[C@H](CCC(=O)O)NC(=O)C(C)(C)NC(=O)C(C)(C)NC(=O)[C@@H](NC(=O)[C@H](CCCCNC(C)=O)NC(=O)[C@H](C)NC(=O)[C@H](CCCNC(=N)N)NC(=O)[C@@H](NC(=O)[C@H](CCCCN)NC(=O)[C@H](CCC(=O)O)NC(=O)[C@H](CCCNC(=N)N)NC(=O)CNC(=O)[C@H](CCC(=O)O)NC(=O)[C@H](CC(C)C)NC(C)=O)C(C)C)[C@@H](C)CC)[C@@H](C)O)C(N)=O)C(=O)O)C(=O)O)C(=O)O` [compound 35] (Ac-LEGREKVRAK(Ac)I[Aib][Aib]EGMSTWS[Aib]RK[PEG12]K([γGlu-γGlu-γGlu-Stearoyl])-NH2), the Emax came to 95%. Regarding `CCCCCCCCCCCCCCCC(=O)N[C@@H](CCC(=O)N[C@@H](CCC(=O)N[C@@H](CCC(=O)N[C@@H](CCC(=O)NCCCC[C@H](NC(=O)COCCOCCNC(=O)COCCOCCNC(=O)COCCOCCNC(=O)[C@H](CCCCNC(C)=O)NC(=O)[C@H](CCCCN)NC(=O)[C@H](CCCNC(=N)N)NC(=O)[C@](C)(CCCCN)NC(=O)[C@H](CO)NC(=O)[C@](C)(Cc1c[nH]c2ccccc12)NC(=O)[C@@H](NC(=O)[C@H](CO)NC(=O)[C@H](CCCC)NC(=O)CNC(=O)[C@H](CCC(=O)O)NC(=O)C(C)(C)NC(=O)C(C)(C)NC(=O)[C@@H](NC(=O)[C@H](CCCCNC(C)=O)NC(=O)[C@H](C)NC(=O)[C@H](CCCNC(=N)N)NC(=O)[C@@H](NC(=O)[C@H](CCCCN)NC(=O)[C@H](CCC(=O)O)NC(=O)[C@H](CCCNC(=N)N)NC(=O)CNC(=O)[C@H](CCC(=O)O)NC(=O)[C@H](CC(C)C)NC(C)=O)C(C)C)[C@@H](C)CC)[C@@H](C)O)C(N)=O)C(=O)O)C(=O)O)C(=O)O)C(=O)O` [compound 125] (Ac-LEGREKVRAK(Ac)I[Aib][Aib]EG[Nle]ST[αMeW]S[αMeK]RKK(Ac)[AEEA][AEEA][AEEA]K([γGlu-γGlu-γGlu-γGlu-Palmitoyl])-NH2), the EC50 was determined as 0.1 nM and the Emax was 89%.

The values above are taken from patent US10988523B2, “Modified lipidated Relaxin B chain peptides and their therapeutic use” (Sanofi, priority 2018, dated 2021).
